Test results as given in PubChem BioAssay AID330 (DTP/NCI, 2004).
Where “and” joins values, the source holds several entries; their conditions need not be identical. Identical values can stand only once. Toxic doses and inconclusive results are not listed. Square brackets hold non-standard residues; d marks the D form. Peptide text beside a SMILES is read from it. * marks the point of attachment. ξ: configuration not given here. Cbz = O=C(OCc1ccccc1)*; ξNva = CCCC(N)C(=O)O

Test system: P388 leukemia ip, CD2F1 mice, survival T/C
Assay: NCI In Vivo Anticancer Drug Screen. Data for tumor model P388 Leukemia (intraperitoneal) in CD2F1 (CDF1) mice
Conditions: endpoint: median survival time, higher = longer survival
Summary of the method: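 Mice carrying the transplanted tumor received test compound or vehicle. Survival was recorded in each group, and the value is the treated-group measurement divided by that of the vehicle-treated control group.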

[1] = dose: 400.0 mg/kg/injection, schedule: Q01DX001 (ip), vehicle: saline with Tween-80
[2] = dose: 25.0 mg/kg/injection, schedule: Q01DX005 (ip), vehicle: Klucel (hydroxypropylcellulose) (HPC)
[3] = dose: 50.0 mg/kg/injection, schedule: Q01DX005 (ip), vehicle: Klucel (hydroxypropylcellulose) (HPC)
[4] = dose: 100.0 mg/kg/injection, schedule: Q01DX005 (ip), vehicle: Klucel (hydroxypropylcellulose) (HPC)
[5] = dose: 200.0 mg/kg/injection, schedule: Q01DX009 (ip), vehicle: saline with Tween-80
[6] = dose: 25.0 mg/kg/injection, schedule: Q01DX009 (ip), vehicle: Klucel (hydroxypropylcellulose) (HPC)
[7] = dose: 200.0 mg/kg/injection, schedule: Q01DX005 (ip), vehicle: Klucel (hydroxypropylcellulose) (HPC)
[8] = dose: 50.0 mg/kg/injection, schedule: Q01DX009 (ip), vehicle: Klucel (hydroxypropylcellulose) (HPC)
[9] = dose: 100.0 mg/kg/injection, schedule: Q01DX009 (ip), vehicle: Klucel (hydroxypropylcellulose) (HPC)
[10] = dose: 200.0 mg/kg/injection, schedule: Q01DX009 (ip), vehicle: Klucel (hydroxypropylcellulose) (HPC)

## C=CS(=O)(=NN1C(=O)c2ccccc2C1=O)c1ccc(C)cc1 (stereo unspecified)
dose: 6.25 mg/kg/injection, schedule: Q01DX001 (ip), vehicle: Klucel (hydroxypropylcellulose) (HPC)
  T/C: 95 % of control
dose: 12.5 mg/kg/injection, schedule: Q01DX001 (ip), vehicle: Klucel (hydroxypropylcellulose) (HPC)
  T/C: 98 % of control
dose: 25.0 mg/kg/injection, schedule: Q01DX001 (ip), vehicle: Klucel (hydroxypropylcellulose) (HPC)
  T/C: 104 % of control and 95 % of control
dose: 50.0 mg/kg/injection, schedule: Q01DX001 (ip), vehicle: Klucel (hydroxypropylcellulose) (HPC)
  T/C: 101 % of control and 104 % of control
dose: 100.0 mg/kg/injection, schedule: Q01DX001 (ip), vehicle: Klucel (hydroxypropylcellulose) (HPC)
  T/C: 106 % of control and 113 % of control

## Cn1cnc2c1c(=O)n(C(C(N)=O)C(N)=O)c(=O)n2C
dose: 200.0 mg/kg/injection, schedule: Q01DX001 (ip), vehicle: saline with Tween-80
  T/C: 104 % of control
[1]
  T/C: 101 % of control

## Nc1ccc(S(=O)(=O)c2ccc(N)cc2)cc1
dose: 6.25 mg/kg/injection, schedule: Q01DX005 (ip), vehicle: Klucel (hydroxypropylcellulose) (HPC)
  T/C: 106 % of control
dose: 12.5 mg/kg/injection, schedule: Q01DX005 (ip), vehicle: Klucel (hydroxypropylcellulose) (HPC)
  T/C: 98 % of control
[2]
  T/C: 104 % of control
[3]
  T/C: 105 % of control
[4]
  T/C: 109 % of control
dose: 150.0 mg/kg/injection, schedule: Q01DX009 (ip), vehicle: saline with Tween-80
  T/C: 109 % of control and 93 % of control
[5]
  T/C: 98 % of control and 105 % of control

## O=C1C2(Cl)C3(Cl)C4(Cl)C(Cl)(Cl)C5(Cl)[C@]3(Cl)C1(Cl)[C@]5(Cl)C24Cl (stereo partly specified)
dose: 12.5 mg/kg/injection, schedule: Q01DX009 (ip), vehicle: Klucel (hydroxypropylcellulose) (HPC)
  T/C: 110 % of control
dose: 12.5 mg/kg/injection, schedule: Q01DX009 (ip), vehicle: saline with Tween-80
  T/C: 94 % of control
[6]
  T/C: 112 % of control
dose: 25.0 mg/kg/injection, schedule: Q01DX009 (ip), vehicle: saline with Tween-80
  T/C: 87 % of control

## S=P1(Oc2ccccc2)Nc2cccc3cccc(c23)N1
[2]
  T/C: 98 % of control
[3]
  T/C: 106 % of control
[4]
  T/C: 102 % of control
[7]
  T/C: 103 % of control

## CCN(c1ccccc1)c1cc2c(cc1[N+](=O)[O-])no[n+]2[O-]
dose: 1.87 mg/kg/injection, schedule: Q01DX009 (ip), vehicle: saline
  T/C: 101 % of control
dose: 3.75 mg/kg/injection, schedule: Q01DX009 (ip), vehicle: saline
  T/C: 91 % of control
dose: 7.5 mg/kg/injection, schedule: Q01DX009 (ip), vehicle: saline
  T/C: 90 % of control and 97 % of control
dose: 15.0 mg/kg/injection, schedule: Q01DX009 (ip), vehicle: saline
  T/C: 103 % of control and 91 % of control
dose: 30.0 mg/kg/injection, schedule: Q01DX009 (ip), vehicle: saline
  T/C: 93 % of control

## CC(=O)Nc1cc(N(CCOS(C)(=O)=O)CCOS(C)(=O)=O)ccc1N=O
dose: 0.08 mg/kg/injection, schedule: Q01DX009 (ip), vehicle: saline
  T/C: 154 % of control
dose: 1.25 mg/kg/injection, schedule: Q04DX003 (ip), vehicle: saline sonified
  T/C: 168 % of control
dose: 2.5 mg/kg/injection, schedule: Q04DX003 (ip), vehicle: saline sonified
  T/C: 177 % of control
dose: 75.0 micrograms/kg/injection, schedule: Q01DX009 (ip), vehicle: saline
  T/C: 159 % of control
dose: 150.0 micrograms/kg/injection, schedule: Q01DX009 (ip), vehicle: saline
  T/C: 159 % of control

## Nc1cc2c(cc1C=O)OCO2
dose: 100.0 mg/kg/injection, schedule: Q04DX003 (ip), vehicle: Klucel (hydroxypropylcellulose) (HPC)
  T/C: 99 % of control
dose: 200.0 mg/kg/injection, schedule: Q04DX003 (ip), vehicle: Klucel (hydroxypropylcellulose) (HPC)
  T/C: 93 % of control
dose: 400.0 mg/kg/injection, schedule: Q04DX003 (ip), vehicle: Klucel (hydroxypropylcellulose) (HPC)
  T/C: 107 % of control

## CCn1c2ccccc2c2cc(N=Nc3cc4ccccc4cc3O)ccc21
[8]
  T/C: 104 % of control
[9]
  T/C: 100 % of control
[10]
  T/C: 104 % of control

## CC(=O)NS(=O)(=O)c1ccc(N/N=C(\C#N)C(N)=O)cc1
[3]
  T/C: 92 % of control
[4]
  T/C: 100 % of control

## O=C1CC[C@H]2[C@@H]3N1c1ccccc1[C@@]31CCN3C/C(=C/CBr)[C@@H]2C[C@H]31
dose: 7.5 mg/kg/injection, schedule: Q01DX005 (ip), vehicle: Klucel (hydroxypropylcellulose) (HPC)
  T/C: 100 % of control
dose: 15.0 mg/kg/injection, schedule: Q01DX005 (ip), vehicle: Klucel (hydroxypropylcellulose) (HPC)
  T/C: 102 % of control

## FC(F)(F)c1ccccc1NC(=S)SCc1ccc2c(c1)OCO2
dose: 12.5 mg/kg/injection, schedule: Q01DX009 (ip), vehicle: saline
  T/C: 97 % of control
dose: 25.0 mg/kg/injection, schedule: Q01DX009 (ip), vehicle: saline
  T/C: 90 % of control
dose: 50.0 mg/kg/injection, schedule: Q01DX009 (ip), vehicle: saline
  T/C: 100 % of control

## CCOC(=O)CCCCc1cccc2ccccc12
dose: 50.0 mg/kg/injection, schedule: Q01DX009 (ip), vehicle: other
  T/C: 103 % of control
dose: 100.0 mg/kg/injection, schedule: Q01DX009 (ip), vehicle: other
  T/C: 100 % of control
dose: 200.0 mg/kg/injection, schedule: Q01DX009 (ip), vehicle: other
  T/C: 107 % of control

## COCC(=O)[C@]1(O)Cc2c(O)c3c(c(O)c2[C@@H](OC2CC(N)C(O)C(C)O2)C1)C(=O)c1c(OC)cccc1C3=O (stereo partly specified)
dose: 6.25 mg/kg/injection, schedule: Q04DX003 (ip), vehicle: water
  T/C: 100 % of control
dose: 12.5 mg/kg/injection, schedule: Q04DX003 (ip), vehicle: water
  T/C: 100 % of control
dose: 25.0 mg/kg/injection, schedule: Q04DX003 (ip), vehicle: water
  T/C: 109 % of control
dose: 100.0 mg/kg/injection, schedule: Q04DX003 (ip), vehicle: water
  T/C: 118 % of control
dose: 200.0 mg/kg/injection, schedule: Q04DX003 (ip), vehicle: water
  T/C: 87 % of control

## Clc1nnc(C(Cl)Cl)o1
[8]
  T/C: 114 % of control
[9]
  T/C: 106 % of control
[10]
  T/C: 99 % of control

## O=C(NC1CCCCC1NC(=O)C12CC3CC(CC(C3)C1)C2)C12CC3CC(CC(C3)C1)C2 (stereo unspecified)
dose: 6.0 mg/kg/injection, schedule: Q01DX005 (ip), vehicle: Klucel (hydroxypropylcellulose) (HPC)
  T/C: 95 % of control
dose: 12.0 mg/kg/injection, schedule: Q01DX005 (ip), vehicle: Klucel (hydroxypropylcellulose) (HPC)
  T/C: 88 % of control
[3]
  T/C: 88 % of control
[7]
  T/C: 92 % of control

## CN(C)C1=CC(=O)NC(c2ccccc2)C1 (stereo unspecified)
[3]
  T/C: 102 % of control
[4]
  T/C: 99 % of control
[7]
  T/C: 99 % of control

## CN1c2ccccc2S(=O)(=O)n2c(CCc3ccccc3)nnc21
dose: 15.0 mg/kg/injection, schedule: Q01DX005 (ip), vehicle: saline with Tween-80
  T/C: 103 % of control
dose: 30.0 mg/kg/injection, schedule: Q01DX005 (ip), vehicle: saline with Tween-80
  T/C: 100 % of control
dose: 60.0 mg/kg/injection, schedule: Q01DX005 (ip), vehicle: saline with Tween-80
  T/C: 87 % of control and 97 % of control
dose: 240.0 mg/kg/injection, schedule: Q01DX005 (ip), vehicle: saline with Tween-80
  T/C: 90 % of control

## CCCC(NC(=O)CNC(=O)OCc1ccccc1)C(=O)O (stereo not drawn) (Cbz-Gly-[ξNva]-OH)
[3]
  T/C: 104 % of control
[4]
  T/C: 98 % of control

## CC1CNCC(C)N1Cc1ccccc1 (stereo unspecified)
dose: 50.0 mg/kg/injection, schedule: Q01DX005 (ip), vehicle: saline
  T/C: 108 % of control
dose: 100.0 mg/kg/injection, schedule: Q01DX005 (ip), vehicle: saline
  T/C: 99 % of control

## Cc1cc(=O)[nH]c(Nc2ccccc2)n1
dose: 100.0 mg/kg/injection, schedule: Q04DX003 (ip), vehicle: saline with Tween-80
  T/C: 100 % of control
dose: 200.0 mg/kg/injection, schedule: Q04DX003 (ip), vehicle: saline with Tween-80
  T/C: 90 % of control
dose: 400.0 mg/kg/injection, schedule: Q04DX003 (ip), vehicle: saline with Tween-80
  T/C: 100 % of control

## O=C(O)/C=C/c1ccc([N+](=O)[O-])o1
[6]
  T/C: 107 % of control and 117 % of control
[8]
  T/C: 120 % of control

## CC(=O)Nc1ccc(OCCOCCOc2ccc(NC(C)=O)cc2)cc1
dose: 50.0 mg/kg/injection, schedule: Q01DX009 (ip), vehicle: saline with Tween-80
  T/C: 92 % of control
dose: 100.0 mg/kg/injection, schedule: Q01DX009 (ip), vehicle: saline with Tween-80
  T/C: 94 % of control
[5]
  T/C: 91 % of control

## Clc1ccc2c(c1)CN1Cc3cc(Cl)ccc3C2C1
dose: 100.0 mg/kg/injection, schedule: Q01DX001 (ip), vehicle: saline with Tween-80
  T/C: 92 % of control
[1]
  T/C: 90 % of control
